Reference: patent publication US20260193647A1, “MIRNA-BASED CANCER THERAPY WITH A TUMOR-NAVIGATING PEPTIDE” (The Board of Trustees of the Universities of Illinois, priority 2022, published 2026)

Key:
miR-20a = assay: Circulating miR-20a in sera of treated mice; assay type: in vivo; settings: early-phase treatment group, 1 mg/kg; vs tumor-free mice (P=0.78)
Text: (§1) Micro RNA enriched fraction was extracted using the miRNeasy Mini Kit (Qiagen, Catalog #217004) following the manufacturer's instructions. Stem loop real-time qPCR was used to analyze miRNA expression. We designed miR-20a stem loop RT primers and amplification primers according to a previously described method 79. cDNA was synthesized from extracted RNA using unique stem loop RT primers. The sequence of the stem loop primer for miR-20a was 5′-[…]-3′ (SEQ ID NO:7). Reverse transcriptase reactions contained the following reagents: 10 ng of RNA sample, 60 nM stem-loop RT primer, 1×RT buffer, 0.25 mM dNTP, and 4 U/μl reverse transcriptase. Reactions were performed by incubation at 16° C. for 30 min, 42° C. for 30 min and 85° C. for 5 min. Real-time PCR (7300 Real time PCR Systems, Applied Biosystems, CA) was performed using the specific forward primer for miR-20a (5′-[…]-3′ (SEQ ID NO:8)) and a universal reverse primer (5′-GTGCA GGGTC CGAGGT-3′ (SEQ ID NO:9)). The 20-μl PCR mixture included 1×SYBR Premix (Invitrogen), 2 μl of RT products and each forward and reverse primer at 10 nM. Reactions were performed by incubation in a 96-well plate at 95° C. for 30 sec, followed by 35 cycles of 95° C. for 30 sec and 60° C. for 30 sec. U6 was used as an internal control to normalize the level of target miRNAs. […]

[1] = test system: SJ-GBM2, CHLA-200, LN-229 and astrocytes; assay: Intracellular entry by qPCR detection of antisense miR-20a; assay type: cell-based, human; settings: 1, 10, 100 and 1,000 nM, 24 hr
Text: as §1

[2] = test system: genes associated with the EGFR, p53 and TGF pathways; assay: qPCR of downstream targets of miR-20a; assay type: cell-based, human; settings: 10 nM, 24 hr
CHLA-200 cells = assay type: cell-based, human; settings: 24 hr; read-out: IC50 (cell viability)
Procedure: (§2) Cell viability was evaluated by a CCK-8 assay (Dojindo, Japan). Cells were seeded at a density of 4,000 cells per well in 100 μl of growth medium in 96-well plates and grown overnight. Then, the cells were exposed to antisense miR-20a alone, p28 alone or negative control or AmiR20-p28 over a range of concentrations and incubated for 24 hr. According to the manufacturer's instructions, 10 μl of CCK-8 solution was added to each well, followed by incubation for 1 hr at 37° C. The absorbance at 450 nm was determined by a multiplate reader.
(§3) Cell viability (%)=Abs(sample)−Abs(blank)/Abs(no treatment)−Abs(blank)×100

LN-229 cells = assay: CCK-8 cell viability assay, LN-229; assay type: cell-based, human; settings: 24 hr
Procedure: as §2, §3

normal human astrocytes = assay: CCK-8 cell viability assay, normal human astrocytes; assay type: cell-based; settings: 24 hr
Procedure: as §2, §3

[3] = test system: SJ-GBM2 cells, CHLA-200 cells and astrocytes; assay: Cellular entry by confocal microscopy; assay type: cell-based, human; settings: 20 μM Alexa Fluor labeled, 2 hr, 37° C.; pGBM cells vs normal astrocytes
Procedure: p28 or AmiR20-p28 were dissolved in PBS mixed with Alexa Fluor 568 dye (Invitrogen) at a 1:2 peptide/dye ratio 37. Sodium bicarbonate (pH 8.5) was added and incubated at 4° C. with continuous stirring. Alexa Fluor 568 labeled p28 and AmiR20-p28 were dialyzed against cold-PBS using Slide-A-Lyzer Dialysis Cassettes (Pierce Biotechnology). Similarly, p28 was labeled with ICG as described previously.
SJ-GBM2 cells, CHLA-200 cells and astrocytes (2×10^4 cells/well) were cultured on glass slides placed in 24-well plates. After overnight culture, the cells were washed with PBS and incubated with 20 μM Alexa Fluor 568-labeled p28 peptide in medium (5% FBS and without phenol red) for 2 hr at 37° C. Cells were fixed with 2% formalin for 10 min. After washing, slides were prepared and mounted with Vectashield with DAPI (Vector Laboratories, Catalog #94010). Slides were examined by an LSM 710 confocal laser scanning microscope (Zeiss). Images were processed using ZEN software (ZEISS ZEN Lite). As for a GSC marker, the slides were first incubated with Alexa Fluor 568-labeled AmiR20-p28 for 2 hr at 37° C. Cells were fixed with 2% formalin for 10 min. After washing, slides were incubated with blocking buffer for 1 hr at room temperature, followed by consecutive staining with anti-CD133 antibody (1:500, R&D Systems FAB11331G). Slides were washed and mounted with Vectashield containing DAPI. […]

## AmiR20-p28: BBB-permeable tumor-navigating CPP p28 (Cys-p28) covalently linked to 2′ O-methyl antisense miR-20a (5′-maleimide)
miR-20a
  serum miR-20a level: not significantly different from the basal level in the tumor-free mice
[1]
  penetration into pGBM and aGBM cells (qPCR of antisense miR-20a): preferential and dose-dependent penetration
[2]; LN-229 cells
  EGFR expression levels: decreased EGFR expression levels
  expression of p53, p21, Bax and E2F: significantly increased
[2]; SJ-GBM2 and CHLA-200 cells
  expression levels of EGFR, Ras, MEK1, ERK1, c-Fos, c-Jun, β-catenin, TCF-1 and Lef1 genes: significantly decreased
  expressions of p53, p21, Bax, and E2F: robust increase
[2]; normal human astrocytes
  gene expression levels: no significant effect on gene expression levels
CHLA-200 cells
  IC50: 11 nM
LN-229 cells
  IC50: 170 nM
LN-229 cells; compared to pGBM
  effect on cell viability: less extensive
Normal human astrocytes
  effect on cell viability: negligible
[3]
  cellular entry (confocal images): preferential entry
